Results from patent US8247540B2, “Caged nucleotides and oligonucleotides and their application” (priority 2008, dated 2012).
Values joined by “and” are separate entries in the source; they are usually repeats but may differ in a detail not shown here. Equal values may be shown once. One block for each molecule: values may come before it. Strand notation (5' to 3'): a small letter for the sugar, then the base; units joined by * are phosphorothioate-linked, units joined directly phosphodiester-linked; [ ] holds rarer units or linkages, { } end groups; capitals alone tell only the bases. [cagedT] = caged thymidine: thymidine bearing a photolabile caging group, removed by UV irradiation at 365 nm; [cageT] = thymidine carrying a photolabile caging group (caged thymidine), removed by 365 nm UV light; [NPOM-T] = NPOM-caged (photocaged) thymidine; d = 2'-deoxy (DNA)

What was measured:
[1] = tested on: complementary RNA sequence (5′ UCCAGAACAAAGGAAACG 3′); test: Melting temperature of PS DNA/RNA hybrids before and after irradiation; assay type: binding; conditions: PS DNA/RNA hybrid; for Mp/° C. +UV: after irradiation (5 min, 365 nm, 23 W); for Mp/° C. −UV: before irradiation
Description: The capacity of the three and four caging groups to inhibit hybridization of the caged PS DNA oligomer to the complementary RNA sequence (5′ UCCAGAACAAAGGAAACG 3′) [SEQ ID NO 14] was examined. Hybridization was monitored on a BioRad MyiQ RT-PCR thermocycler by conducting a sequence of 3 heating and cooling cycles. […] Complete hybridization was restored upon a 5-minute irradiation at 365 nm for both caged analogs (Table 2).

[2] = tested on: Renilla luciferase reporter gene; test: Renilla luciferase antisense assay in NIH 3T3 cells (dual reporter); assay type: cell-based, mouse; conditions: for antisense activity / effect on the luciferase signal: NIH 3T3, without UV irradiation
Description: The error bars represent the standard deviation of three independent experiments.
These antisense oligomers were transfected into mouse fibroblast cells (NIH 3T3) together with a dual reporter system encoding Renilla luciferase and firefly luciferase as a transfection control.

[3] = Stability of the caging group to PCR conditions; assay type: physicochemical; conditions: elevated temperatures required for PCR
chordin = test: Light-regulation of morpholino activity in zebrafish embryos; assay type: in vivo
Description: Percentages represent the frequency of the pictured phenotype in live fish. A) Non-injected embryo (100%). B) Injection of the non-caged Chordin-0 MO (100%). C) Injection of the caged MO (Chordin-4) −UV irradiation (80%). D) Injection of the caged MO (Chordin-4) +UV irradiation for 60 sec at 365 nm (100%). Identical amounts were injected in each experiment. The expanded blood island (arrows) is indicative of the chordin phenotype.
Injections with the non-caged and caged morpholino oligomers containing four […] monomers targeting chordin were conducted. Zebrafish embryos were injected into the yolk sac at the 1-4 cell stage with ˜1 nl of 500 μm caged Chordin-4 morpholino (5′ AT*CCACAGCAGCCCCT*CCAT*CAT*CC 3′ [SEQ ID NO 2]; T* denotes the caged thymidine; containing 0.15% phenol red to verify injection). Immediately after injection, half of the injected embryos were exposed to 365 nm UV light for 60 sec. The other half was protected from light. Half of the uninjected control embryos were also exposed to 365 nm UV for 60 sec, and no phenotypic differences between ±UV were detected. All embryos were grown at 28° C. for about 28 hours before their phenotypes were photographed. The chordin gene induces dorsalization of the developing embryo and injection of an anti-chordin MO induces a phenotype resembling chordin null-mutant embryos by displaying abnormally shaped somites, an expanded blood island (see arrows in FIG. 5), an abnormal tail fin, and a reduced head (see FIG. 5B compared to the non-injected fish shown in FIG. 5A).

[4] = tested on: DNA template (plasmid DNA); test: Light-triggered polymerase chain reaction (activation and deactivation); assay type: biochemical
Description: The DNA template (1.5 ng/μL of plasmid DNA) was incubated in the presence of P5 and a reverse primer (5′[…]-GT 3′, [SEQ ID NO 11] 1 μM each; the same reverse primer was used in all PCRs) with nucleotide triphosphates (dNTPs, 0.3 mM each), in Taq Reaction Buffer (10 mM Tris-HCl, 50 mM. KCl, 1.5 mM MgCl2, pH 8.3) and water. Taq DNA Polymerase (3 units/μL) was added to initiate the reaction. Prior to placement in a PCR thermocycler (Eppendor Mastercycler) the reaction was either irradiated for 8 minutes at 365 nm, or maintained in the dark. An initial denaturation at 95° C. was performed, followed by 40 cycles of 95° C. (30 sec), 50° C. (30 sec), and 72° C. (1 min), with a final extension at 72° C. (2 min). The reactions were conducted in triplicate, visualized on a 1% agarose gel, and quantitated (all DNA was quantified by band integration in ethidium bromide stained agarose gels using Image Quant 5.2). […] This experiment represented the first example of a light-activated PCR. While we initially employed irradiation prior to the thermal cycling, temporal control was also achieved by initiating the reaction through irradiation at a specific timepoint. Here, an identical reaction with UV irradiating at cycle 15 was conducted. Prior to irradiation, no PCR product can be detected in reactions conducted with the caged primer P5. In contrast, the non-caged primer P1 lead to the expected exponential amplification.
After achieving photochemical control of the activation of PCR at a specific time point, the possibility to switch-off PCR activity via light irradiation was examined. This was accomplished by designing a self-complementary primer which was predisposed to form a hairpin, rather than act as a PCR primer. By installing caging groups on the complementary portion of this sequence it was possible to block self-hybridization, which enabled the polymerization reaction. The PCR was then stopped by removing the photoactive groups, leading to hairpin formation and primer deactivation (FIG. 7). In order to achieve photochemical deactivation, an appropriate hairpin primer P8 was designed (5′ […] 3′) [SEQ ID NO. 12], and a photocaged analog P9 was synthesized (5′ […] 3′) [SEQ ID NO. 13]. […] However, in the absence of light irradiation the caged hairpin primer P9 was successful in acting as a primer, yielding 137 ng of PCR product (not shown).
Light-regulatory mechanisms were also employed in a temporally controlled fashion by irradiating the caged primer after 10 cycles of PCR. The non-caged primer P8 was used as a control, as it formed a hairpin immediately, blocking Taq DNA polymerase and inhibiting amplification. Because the caged primer P9 was able to bind to the DNA template, amplification occurred. […] At the same point, amplification continued in the non-irradiated reaction with P9.

[5] = tested on: non-caged complement (5′ CGAACCTGGTCGAAATCAG 3′); test: Melting temperatures of caged and non-caged PCR primers with complementary DNA; assay type: binding; conditions: for Mp/° C. +UV: after 8 minutes irradiation at 365 nm; for Mp/° C. −UV: before UV, 1 μM primer and complementary DNA; for melting temperature depression: single caging group, versus P1, −UV
Description: The DNA oligomers P1-P7, consisting of 19 nucleotides, a typical length for PCR primers, and containing 0-4 caged thymidines have been synthesized (Table 1). These primers were than analyzed for their annealing and melting properties in the presence of a complementary oligonucleotide.
Melting curves were measured on a BioRad MyiQ RT-PCR thermocycler by conducting a sequence of 3 heating and cooling cycles (1 μM of both primer and complementary DNA with 12.5 μL iQ SYBR Green Supermix to a total volume of 25 μL; 40° C. to 80° C. with a 0.5° C./min ramp). The melting temperatures were determined to be 65.3° C. (P1), 62.1° C. (P2), 54.3° C. (P3), 55.5° C. (P4), and 50.0° C. (P6). […] This effect was less pronounced in P2, perhaps due to the caged T's close proximity to the 5′ terminus, which lead to a lower level of interference with the hybridization of neighboring nucleotides. With the incorporation of additional caging groups in P4-P7, melting temperatures decreased further. However, addition of a single caged thymidine close to the 5′ terminus of P3 had no effect in P4. […] In order to ensure a complete removal of the photolabile group, each primer was irradiated for 8 minutes at 365 nm, and then analyzed in the same melting temperature assay.

[6] = activation experiment, no UV irradiation, 40 cycles

Molecule: 3-Caged: phosphorothioate DNA 5′ CGTTT*CCTTT*GTTCT*GGA 3′, T* NPOM-caged thymidine, SEQ ID NO 17 (DNA dC*dG*dT*dT*d[NPOM-T]*dC*dC*dT*dT*d[NPOM-T]*dG*dT*dT*dC*d[NPOM-T]*dG*dG*dA)
Mp/° C. +UV [1]: 39.2 ± 0.6 °C
antisense activity / effect on the luciferase signal [2]: completely inhibited the antisense activity

Molecule: 5. Control: control phosphorothioate DNA 5′ TCCAGAACAAAGGAAACG 3′, SEQ ID NO 15 (DNA dT*dC*dC*dA*dG*dA*dA*dC*dA*dA*dA*dG*dG*dA*dA*dA*dC*dG)
Mp/° C. −UV [1]: No hybridization was detected
antisense activity / effect on the luciferase signal [2]: no effect on the luciferase signal

Molecule: 7. Non-caged: non-caged phosphorothioate DNA targeting Renilla luciferase, 5′ CGTTTCCTTTGTTCTGGA 3′, SEQ ID NO 16
Mp/° C. +UV [1]: 39.3 ± 0.8 °C
Mp/° C. −UV [1]: 39.5 ± 0.5 °C
Mp/° C. −UV ([1]; listed as non-caged PS DNA): approximately 39 °C
down-regulation of the Renilla luciferase signal ([2]; NIH 3T3, no UV): 70%

stability of the caging group to PCR conditions [3]: unaffected by the elevated temperatures
Molecule: Cc1cn(C2CC(O)C(CO)O2)c(=O)n(COC(C)c2cc3c(cc2[N+](=O)[O-])OCO3)c1=O (stereo not drawn) [monomeric caged thymidine, Caged thymidine]

Molecule: Chordin-4: caged morpholino 5′ AT*CCACAGCAGCCCCT*CCAT*CAT*CC 3′, T* caged thymidine, four 21 monomers (DNA ATCCACAGCAGCCCCTCCATCATCC; morpholino, caged thymidines, chemistry not fully specified)
frequency of the pictured phenotype in live fish (chordin; +UV irradiation for 60 sec at 365 nm, chordin phenotype pictured): 100%
morpholino antisense activity (phenotype) (chordin; protected from light, about 28 hours at 28° C.): completely inactive
frequency of the pictured phenotype in live fish (chordin; −UV irradiation, wild-type phenotype pictured): 80%

Molecule: P1: non-caged 19 nucleotide PCR primer 5′ CTGATTTCGACCAGGTTCG 3′, SEQ ID NO 3 (DNA, backbone not given here) [reference compound]
PCR product [4, 6]: approximately 140 ng
Mp/° C. +UV [5]: 65.0 ± 0.8 °C
Mp/° C. −UV [5]: 65.3 °C and 65.3 ± 0.3 °C

Molecule: P2: primer 5′ CTGATTTCGACCAGGTTCG 3′ with a single caged thymidine close to the 5′ terminus, SEQ ID NO 4 (DNA, [cageT] at 2, backbone not given here)
Mp/° C. +UV [5]: 64.1 ± 0.2 °C
Mp/° C. −UV [5]: 62.1 °C and 62.1 ± 0.7 °C
melting temperature depression [5]: 3.2 °C

Molecule: P3: primer 5′ CTGATTTCGACCAGGTTCG 3′ with a single caged thymidine, SEQ ID NO 5 (DNA, [cageT] at 7, backbone not given here)
Mp/° C. +UV [5]: 64.1 ± 0.8 °C
Mp/° C. −UV [5]: 54.3 °C and 54.3 ± 1.1 °C
melting temperature depression [5]: 11.0 °C

Molecule: P4: P3 with an additional caged thymidine close to the 5′ terminus, SEQ ID NO 6 (DNA CTGATTTCGACCAGGTTCG; DNA, [cageT] at 2, 7, backbone not given here)
Mp/° C. +UV [5]: 63.8 ± 0.3 °C
Mp/° C. −UV [5]: 55.5 °C and 55.5 ± 0.5 °C

Molecule: P5: primer with three caging groups distributed throughout the DNA oligomer, SEQ ID NO 7 (DNA CTGATTTCGACCAGGTTCG; DNA, [cageT] at 2, 7, 17, backbone not given here)
DNA amplification ([4]; UV irradiation at cycle 15): increases exponentially
PCR product ([4]; activation experiment, irradiated 8 minutes at 365 nm before cycling, 40 cycles): comparable amounts of PCR product as found in the reaction with P1
PCR product [4, 6]: only trace amounts
Mp/° C. +UV [5]: 64.2 ± 0.2 °C
Mp/° C. −UV [5]: No melting temperatures could be measured

Molecule: P6: primer with a cluster of three caged thymidines, SEQ ID NO 8 (DNA CTGATTTCGACCAGGTTCG; DNA, [cageT] at 5, 6, 7, backbone not given here)
Mp/° C. +UV [5]: 64.5 ± 0.5 °C
Mp/° C. −UV [5]: 50.0 °C and 50.0 ± 1.0 °C

Molecule: P7: caged primer 5′ CTGATTTCGACCAGGTTCG 3′, SEQ ID NO 9, probably four caged thymidines (DNA, [cagedT] at 2, 5, 7, 17, backbone not given here; PCR primer)
Mp/° C. +UV [5]: 64.2 ± 0.3 °C
Mp/° C. −UV [5]: No melting temperatures could be measured

Molecule: P8: non-caged hairpin primer 5′ GGTCAGTAAATTGTTTTTCAATTTACTGACCG 3′, SEQ ID NO 12 (hairpin primer, further chemistry not given here) [reference compound]
PCR product ([4]; deactivation (hairpin primer) experiment, no light irradiation, 25 cycles): very little PCR product
